# Values of other authors in patent US20040197397A1, “Drug delivery system for treatment of urinary incontinence” (Watson Pharmaceuticals, Inc., priority 2002, published 2004).
# Conditions: free base
compound,measurement,value
"CCN(CC)CC#CCOC(=O)C(O)(c1ccccc1)C1CCCCC1 (stereo not shown) [Oxybutynin free base, Oxybutynin]",pKa,10.3
